Data: patent US8859580B2 (Boehringer Ingelheim International GmbH, priority 2007, dated 2014)

target: T1, 11β-HSD1 (Homo sapiens, UniProt P28845); assay: In vitro inhibition of 11β-HSD1, HTRF detection of cortisol generated from cortisone by human liver microsomes; assay type: biochemical; settings: 11β-HSD IC50 (nM), 1 hour at 37° C., pH 6.0, NADPH 200 μM, cortisone 80 nM, inhibition relative to carbenoxolone signal
T1 construct: detecting cortisol generated from cortisterone by human liver microsomes; from tissue; host or cells: human liver microsomes
T1 sequence (P28845 whole entry): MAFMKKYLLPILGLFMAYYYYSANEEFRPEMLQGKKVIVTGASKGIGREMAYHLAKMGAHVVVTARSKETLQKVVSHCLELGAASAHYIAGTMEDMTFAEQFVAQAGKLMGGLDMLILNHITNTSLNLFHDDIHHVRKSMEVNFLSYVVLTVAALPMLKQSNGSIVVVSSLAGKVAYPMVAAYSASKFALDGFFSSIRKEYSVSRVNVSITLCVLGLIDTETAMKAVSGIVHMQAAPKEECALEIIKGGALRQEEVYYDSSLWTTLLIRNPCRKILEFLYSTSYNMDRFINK
How it was run: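 Inhibition expressed against the carbenoxolone signal and fitted to IC50 curves. Readout: HTRF competition between microsomal cortisol and XL665-labelled cortisol for Eu-cryptate anti-cortisol antibody (typically 2 h), with emission ratio 665/615 calibrated to cortisol concentration.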

Compound	IC50 [nM]
CC(C)(C)c1nc2cc3c(cc2[nH]1)[C@]1(C)CCN(C(=O)c2ccc4nc[nH]c4c2)[C@H](C3)C1(C)C [Example 273, (3H-Benzoimidazol-5-yl)-[(6R,10S)-2-tert-butyl-5,6,7,8,9,10-hexahydro-10,12,12-trimethyl-6,10-methano-imidazo[5,4-i][3]benzazocin-7-yl]-methanone]	35
CC1(C)[C@H]2Cc3cc4nc(-c5cccnc5)[nH]c4cc3[C@]1(C)CCN2C(=O)c1ccc2nc[nH]c2c1 [Example 274, (3H-Benzoimidazol-5-yl)-[(6R,10S)-5,6,7,8,9,10-hexahydro-10,12,12-trimethyl-2-pyridin-3-yl-6,10-methano-imidazo[5,4-i][3]benzazocin-7-yl]-methanone]	51
CC1(C)[C@H]2Cc3cc4nc([C@@H]5CCCO5)[nH]c4cc3[C@]1(C)CCN2C(=O)c1ccc2nc[nH]c2c1 [Example 275, (3H-Benzoimidazol-5-yl)-[(6R,10S)-5,6,7,8,9,10-hexahydro-10,12,12-trimethyl-2-[(S)-tetrahydrofuran-2-yl]-6,10-methano-imidazo[5,4-i][3]benzazocin-7-yl]-methanone]	25
CC1(C)[C@H]2Cc3cc4nc(-c5ccnnc5)[nH]c4cc3[C@]1(C)CCN2C(=O)c1ccc2nc[nH]c2c1 [Example 276, (3H-Benzoimidazol-5-yl)-[(6R,10S)-5,6,7,8,9,10-hexahydro-10,12,12-trimethyl-2-pyridazin-4-yl-6,10-methano-imidazo[5,4-i][3]benzazocin-7-yl]-methanone]	34
Cc1cnc(-c2nc3cc4c(cc3[nH]2)[C@]2(C)CCN(C(=O)c3ccc5nc[nH]c5c3)[C@H](C4)C2(C)C)cn1 [Example 277, (3H-Benzoimidazol-5-yl)-[(6R,10S)-5,6,7,8,9,10-hexahydro-10,12,12-trimethyl-2-(5-methyl-pyrazin-2-yl)-6,10-methano-imidazo[5,4-i][3]benzazocin-7-yl]-methanone]	34
CC1(C)[C@H]2Cc3ccccc3[C@]1(C)CCN2C(=O)c1ccc2nccnc2c1 [Example 278, Quinoxalin-6-yl-[(2R,6S)-6,11,11-trimethyl-1,2,5,6-tetrahydro-4H-2,6-methano-benzo[d]azocin-3-yl]-methanone]	438
C[C@@H]1[C@H]2Cc3ccc(-c4ccn(C)c(=O)c4)cc3[C@]1(C)CCN2C(=O)c1ccc2nc[nH]c2c1 [Example 279, (3H-Benzoimidazol-5-yl)-[(2R,6R,11S)-6,11-dimethyl-8-(1-methyl-2-oxo-1,2-dihydro-pyridin-4-yl)-1,2,5,6-tetrahydro-4H-2,6-methano-benzo[d]azocin-3-yl]-methanone]	52
CC1(C)[C@H]2Cc3ccccc3[C@]1(C)CCN2C(=O)c1ccc([N+](=O)[O-])cc1 [Example 280, (4-Nitro-phenyl)-[(2R,6S)-6,11,11-trimethyl-1,2,5,6-tetrahydro-4H-2,6-methano-benzo[d]azocin-3-yl]-methanone]	1260
CC1(C)[C@H]2Cc3ccccc3[C@]1(C)CCN2C(=O)c1c(F)c(F)c(N)c(F)c1F [Example 281, (4-Amino-2,3,5,6-tetrafluoro-phenyl)-[(2R,6S)-6,11,11-trimethyl-1,2,5,6-tetrahydro-4H-2,6-methano-benzo[d]azocin-3-yl]-methanone]	918
CC1(C)[C@H]2Cc3ccccc3[C@]1(C)CCN2C(=O)c1ccc2ccccc2c1 [Example 282, Naphthalen-2-yl-[(2R,6S)-6,11,11-trimethyl-1,2,5,6-tetrahydro-4H-2,6-methano-benzo[d]azocin-3-yl]-methanone]	409
CC1(C)[C@H]2Cc3ccccc3[C@]1(C)CCN2C(=O)c1cc(Cl)c(N)c(Cl)c1 [Example 283, (4-Amino-3,5-dichloro-phenyl)-[(2R,6S)-6,11,11-trimethyl-1,2,5,6-tetrahydro-4H-2,6-methano-benzo[d]azocin-3-yl]-methanone]	55
CC1(C)[C@H]2Cc3ccccc3[C@]1(C)CCN2C(=O)c1cccc2ccccc12 [Example 284, Naphthalen-1-yl-[(2R,6S)-6,11,11-trimethyl-1,2,5,6-tetrahydro-4H-2,6-methano-benzo[d]azocin-3-yl]-methanone]	666
CC1(C)[C@H]2Cc3ccccc3[C@]1(C)CCN2C(=O)c1ccc2cn[nH]c2c1 [Example 285, (1H-Indazol-6-yl)-[(2R,6S)-6,11,11-trimethyl-1,2,5,6-tetrahydro-4H-2,6-methano-benzo[d]azocin-3-yl]-methanone]	150
CC1(C)[C@H]2Cc3ccccc3[C@]1(C)CCN2C(=O)c1ccc(N)cc1 [Example 286, (4-Amino-phenyl)-[(2R,6S)-6,11,11-trimethyl-1,2,5,6-tetrahydro-4H-2,6-methano-benzo[d]azocin-3-yl]-methanone]	47
CC1(C)[C@H]2Cc3ccccc3[C@]1(C)CCN2C(=O)c1ccc2c(c1)C(=O)CC2 [Example 288, 6-[(2R,6S)-6,11,11-Trimethyl-1,2,5,6-tetrahydro-4H-2,6-methano-benzo[d]azocine-3-carbonyl)-indan-1-one]	901
C[C@@H]1[C@H]2Cc3ccc(-c4ccc(=O)n(C)c4)cc3[C@]1(C)CCN2C(=O)c1ccc2nc[nH]c2c1 [Example 289, 5-[(2R,6R,11S)-3-(3H-Benzoimidazole-5-carbonyl)-6,11-dimethyl-1,2,3,4,5,6-hexahydro-2,6-methano-benzo[d]azocin-8-yl]-1-methyl-1H-pyridin-2-one]	121
C[C@@H]1[C@H]2Cc3ccc(-c4ccc(=O)n(C)n4)cc3[C@]1(C)CCN2C(=O)c1ccc2nc[nH]c2c1 [Example 290, 6-[(2R,6R,11S)-3-(3H-Benzoimidazole-5-carbonyl)-6,11-dimethyl-1,2,3,4,5,6-hexahydro-2,6-methano-benzo[d]azocin-8-yl]-2-methyl-2H-pyridazin-3-one]	72
CC1(C)[C@H]2Cc3ccccc3[C@]1(C)CCN2C(=O)c1ccc2c(c1)C(O)CC2 (stereo partly drawn) [Example 291, (3-Hydroxy-indan-5-yl)-[(2R,6S)-6,11,11-trimethyl-1,2,5,6-tetrahydro-4H-2,6-methano-benzo[d]azocin-3-yl]-methanone]	183
CC1(O)CCc2ccc(C(=O)N3CC[C@@]4(C)c5ccccc5C[C@@H]3C4(C)C)cc21 (stereo partly drawn) [Example 292, (3-Hydroxy-3-methyl-indan-5-yl)-[(2R,6S)-6,11,11-trimethyl-1,2,5,6-tetrahydro-4H-2,6-methano-benzo[d]azocin-3-yl]-methanone]	502
CC1(C)[C@H]2Cc3ccccc3[C@]1(C)CCN2C(=O)c1ccc2[nH]ncc2c1 [Example 293, (1H-Indazol-5-yl)-[(2R,6S)-6,11,11-trimethyl-1,2,5,6-tetrahydro-4H-2,6-methano-benzo[d]azocin-3-yl]-methanone]	27
CC1(C)[C@H]2Cc3ccccc3[C@]1(C)CCN2C(=O)c1ccc(N)c(Cl)c1 [Example 295, (4-Amino-3-chloro-phenyl)-[(2R,6S)-6,11,11-trimethyl-1,2,5,6-tetrahydro-4H-2,6-methano-benzo[d]azocin-3-yl]-methanone]	35
CC1(C)[C@H]2Cc3ccccc3[C@]1(C)CCN2C(=O)c1ccc(N)c(F)c1 [Example 296, (4-Amino-3-fluoro-phenyl)-[(2R,6S)-6,11,11-trimethyl-1,2,5,6-tetrahydro-4H-2,6-methano-benzo[d]azocin-3-yl]-methanone]	32
CC1(C)[C@H]2Cc3ccccc3[C@]1(C)CCN2C(=O)c1cc(F)c(F)c(F)c1 [Example 297, (3,4,5-Trifluoro-phenyl)-[(2R,6S)-6,11,11-trimethyl-1,2,5,6-tetrahydro-4H-2,6-methano-benzo[d]azocin-3-yl]-methanone]	895
CC1(C)[C@H]2Cc3ccccc3[C@]1(C)CCN2C(=O)c1ccc2c(c1)CC(=O)N2 [Example 298, 5-[(2R,6S)-6,11,11-Trimethyl-1,2,5,6-tetrahydro-4H-2,6-methano-benzo[d]azocine-3-carbonyl]-1,3-dihydro indol-2-one]	99
CC(=O)c1ccc(C(=O)N2CC[C@@]3(C)c4ccccc4C[C@@H]2C3(C)C)cc1 [Example 299]	352
Cc1nc2c3c(ccc2o1)C[C@@H]1[C@@H](C)[C@@]3(C)CCN1C(=O)c1ccc2nc[nH]c2c1 [Example 300, (3H-Benzoimidazol-5-yl)-[(7R,11R,12S)-6,7,8,9,10,11-hexahydro-2,11,12-trimethyl-6,10-methano-oxazolo[4,5-h][3]benzazocin-8-yl]-methanone]	115
Cc1nc2cc3c(cc2o1)C[C@H]1N(C(=O)c2ccc4nc[nH]c4c2)CC[C@]3(C)C1(C)C [Example 301, (3H-Benzoimidazol-5-yl)-[(6R,10S)-5,6,7,8,9,10-hexahydro-2,10,12,12-tetramethyl-6,10-methano-oxazolo[4,5-i][3]benzazocin-7-yl]-methanone]	32
CC1(C)[C@H]2Cc3cc4oc(C5CC5)nc4cc3[C@]1(C)CCN2C(=O)c1ccc2nc[nH]c2c1 [Example 302, (3H-Benzoimidazol-5-yl)-[(6R,10S)-2-cyclopropyl-5,6,7,8,9,10-hexahydro-10,12,12-trimethyl-6,10-methano-oxazolo[4,5-i][3]benzazocin-7-yl]-methanone]	35
CC1(C)[C@H]2Cc3ccccc3[C@]1(C)CCN2C(=O)c1ccc(O)nc1 [Example 303, (6-Hydroxy-pyridin-3-yl)-[(2R,6S)-6,11,11-trimethyl-1,2,5,6-tetrahydro-4H-2,6-methano-benzo[d]azocin-3-yl)-methanone]	717

same assay, conditions: 1 hour at 37° C., pH 6.0, NADPH 200 μM, cortisone 80 nM, inhibition relative to carbenoxolone signal, read-out: 11β-HSD IC50

Compound	IC50 [nM]
Cn1cc(C2=NC3=CC4=C(CC3=N2)C[C@H]2N(C(=O)c3ccc5nc[nH]c5c3)CC[C@]4(C)C2(C)C)ccc1=O [Example 272, (3H-Benzoimidazol-5-yl)-[(6R,10S)-5,6,7,8,9,10-hexahydro-10,12,12-trimethyl-2-(1-methyl-6-oxo-1,6-dihydro-pyridin-3-yl)-6,10-methano-imidazo[5,4-i][3]benzazocin-7-yl]-methanone]	44
